Assay results from paper PMC12171682, “Saarvienin A—A Novel Glycopeptide with Potent Activity against Drug‐Resistant Bacteria” (Angewandte Chemie (International Ed. in English), 2025).
Values after ≈ are worked out from the molar mass of the structure shown. Where two headings read alike, the source gives them in different places.

Experiments:
[1] = tested on: E. faecalis ATCC 29212; test: microbe, parasite or virus in culture; conditions: Enterococcus faecalis, ATCC29212, 24 h, read-out: MIC, E. faecalis ATCC29212
[2] = tested on: vancomycin‐resistant E. faecium clinical isolates with reduced susceptibility to daptomycin (n = 26); test: microbe, parasite or virus in culture; conditions: Enterococcus faecium; for MIC: 24 h; for MIC50 / MIC90: VRE
[3] = tested on: vancomycin‐resistant E. faecium clinical isolates with reduced susceptibility to daptomycin (n = 26); conditions: broth microdilution, MHB II, daptomycin with 50 µg/mL Ca2+, mean of two independent experiments
[4] = tested on: E. faecalis ATCC 29212; conditions: reference strain in Table S5; broth microdilution, MHB II, 37 °C, 24 h; daptomycin with 50 µg/mL Ca2+; mean of two independent experiments
[5] = read-out: MIC, Enterococcus faecium isolate 1
[6] = read-out: MIC, Enterococcus faecium isolate 2
[7] = read-out: MIC, Enterococcus faecium isolate 3
[8] = read-out: MIC, Enterococcus faecium isolate 4
[9] = read-out: MIC, Enterococcus faecium isolate 5
[10] = read-out: MIC, Enterococcus faecium isolate 6
[11] = read-out: MIC, Enterococcus faecium isolate 7
[12] = read-out: MIC, Enterococcus faecium isolate 8
[13] = read-out: MIC, Enterococcus faecium isolate 9
[14] = read-out: MIC, Enterococcus faecium isolate 10
[15] = read-out: MIC, Enterococcus faecium isolate 11
[16] = read-out: MIC, Enterococcus faecium isolate 12
[17] = read-out: MIC, Enterococcus faecium isolate 13
[18] = read-out: MIC, Enterococcus faecium isolate 14
[19] = read-out: MIC, Enterococcus faecium isolate 15
[20] = read-out: MIC, Enterococcus faecium isolate 16
[21] = read-out: MIC, Enterococcus faecium isolate 17
[22] = read-out: MIC, Enterococcus faecium isolate 18
[23] = read-out: MIC, Enterococcus faecium isolate 19
[24] = read-out: MIC, Enterococcus faecium isolate 20
[25] = read-out: MIC, Enterococcus faecium isolate 21
[26] = read-out: MIC, Enterococcus faecium isolate 22
[27] = read-out: MIC, Enterococcus faecium isolate 23
[28] = read-out: MIC, Enterococcus faecium isolate 24
[29] = read-out: MIC, Enterococcus faecium isolate 25
[30] = read-out: MIC, Enterococcus faecium isolate 26
[31] = 26 VRE E. faecium clinical isolates

CNC(C)C1CCC(N)C(OC2C(N)CC(N)C(OC3OCC(C)(O)C(NC)C3O)C2O)O1 (stereo not drawn) [Gentamicin]
MIC [1]: 8 µg/mL (≈ 16.8 µM) | MIC [2, 5]: > 64 µg/mL | MIC [2, 6]: > 64 µg/mL | MIC [2, 7]: 64 µg/mL (≈ 134 µM) | MIC [2, 8]: > 64 µg/mL | MIC [2, 9]: > 64 µg/mL | MIC [2, 10]: > 64 µg/mL | MIC [2, 11]: > 64 µg/mL | MIC [2, 12]: > 64 µg/mL | MIC [2, 13]: > 64 µg/mL | MIC [2, 14]: > 64 µg/mL | MIC [2, 15]: > 64 µg/mL | MIC [2, 16]: > 64 µg/mL | MIC [2, 17]: > 64 µg/mL | MIC [2, 18]: > 64 µg/mL | MIC [2, 19]: > 64 µg/mL | MIC [2, 20]: > 64 µg/mL | MIC [2, 21]: > 64 µg/mL | MIC [2, 22]: > 64 µg/mL | MIC [2, 23]: > 64 µg/mL | MIC [2, 24]: > 64 µg/mL | MIC [2, 25]: > 64 µg/mL | MIC [2, 26]: > 64 µg/mL | MIC [2, 27]: > 64 µg/mL | MIC [2, 28]: > 64 µg/mL | MIC [2, 29]: > 64 µg/mL | MIC [2, 30]: > 64 µg/mL | MIC50 [2]: > 64 µg/mL | MIC90 [2]: > 64 µg/mL

CC(=O)NC[C@H]1CN(c2ccc(N3CCOCC3)c(F)c2)C(=O)O1 [Linezolid]
MIC Range [3, 31]: 2 to 4 µg/mL | MIC [1]: 2 µg/mL (≈ 5.93 µM) | MIC [2, 5]: 2 µg/mL (≈ 5.93 µM) | MIC [2, 6]: 2 µg/mL (≈ 5.93 µM) | MIC [2, 7]: 4 µg/mL (≈ 11.9 µM) | MIC [2, 8]: 2 µg/mL (≈ 5.93 µM) | MIC [2, 9]: 4 µg/mL (≈ 11.9 µM) | MIC [2, 10]: 4 µg/mL (≈ 11.9 µM) | MIC [2, 11]: 2 µg/mL (≈ 5.93 µM) | MIC [2, 12]: 2 µg/mL (≈ 5.93 µM) | MIC [2, 13]: 2 µg/mL (≈ 5.93 µM) | MIC [2, 14]: 2 µg/mL (≈ 5.93 µM) | MIC [2, 15]: 2 µg/mL (≈ 5.93 µM) | MIC [2, 16]: 4 µg/mL (≈ 11.9 µM) | MIC [2, 17]: 4 µg/mL (≈ 11.9 µM) | MIC [2, 18]: 4 µg/mL (≈ 11.9 µM) | MIC [2, 19]: 4 µg/mL (≈ 11.9 µM) | MIC [2, 20]: 4 µg/mL (≈ 11.9 µM) | MIC [2, 21]: 2 µg/mL (≈ 5.93 µM) | MIC [2, 22]: 4 µg/mL (≈ 11.9 µM) | MIC [2, 23]: 4 µg/mL (≈ 11.9 µM) | MIC [2, 24]: 2 µg/mL (≈ 5.93 µM) | MIC [2, 25]: 2 µg/mL (≈ 5.93 µM) | MIC [2, 26]: 4 µg/mL (≈ 11.9 µM) | MIC [2, 27]: 4 µg/mL (≈ 11.9 µM) | MIC [2, 28]: 4 µg/mL (≈ 11.9 µM) | MIC [2, 29]: 4 µg/mL (≈ 11.9 µM) | MIC [2, 30]: 2 µg/mL (≈ 5.93 µM) | MIC50 [2]: 4 µg/mL (≈ 11.9 µM) | MIC90 [2]: 4 µg/mL (≈ 11.9 µM)

teicoplanin
MIC, E. faecalis ATCC29212 [4]: 0.5 µg/mL | MIC50 [3, 31]: 64 µg/mL | MIC, Enterococcus faecium isolate 1 ([3]; clinical isolate 1, 37 °C, 24 h): 64 µg/mL | MIC, Enterococcus faecium isolate 2 ([3]; clinical isolate 2, 37 °C, 24 h): 32 µg/mL | MIC, Enterococcus faecium isolate 3 ([3]; clinical isolate 3, 37 °C, 24 h): 2 µg/mL | MIC, Enterococcus faecium isolate 4 ([3]; clinical isolate 4, 37 °C, 24 h): 2 µg/mL | MIC, Enterococcus faecium isolate 5 ([3]; clinical isolate 5, 37 °C, 24 h): > 64 µg/mL | MIC, Enterococcus faecium isolate 6 ([3]; clinical isolate 6, 37 °C, 24 h): 64 µg/mL | MIC, Enterococcus faecium isolate 7 ([3]; clinical isolate 7, 37 °C, 24 h): 32 µg/mL | MIC, Enterococcus faecium isolate 8 ([3]; clinical isolate 8, 37 °C, 24 h): 64 µg/mL | MIC, Enterococcus faecium isolate 9 ([3]; clinical isolate 9, 37 °C, 24 h): > 64 µg/mL | MIC, Enterococcus faecium isolate 10 ([3]; clinical isolate 10, 37 °C, 24 h): > 64 µg/mL | MIC, Enterococcus faecium isolate 11 ([3]; clinical isolate 11, 37 °C, 24 h): 32 µg/mL | MIC, Enterococcus faecium isolate 12 ([3]; clinical isolate 12, 37 °C, 24 h): 64 µg/mL | MIC, Enterococcus faecium isolate 13 ([3]; clinical isolate 13, 37 °C, 24 h): 32 µg/mL | MIC, Enterococcus faecium isolate 14 ([3]; clinical isolate 14, 37 °C, 24 h): 32 µg/mL | MIC, Enterococcus faecium isolate 15 ([3]; clinical isolate 15, 37 °C, 24 h): 64 µg/mL | MIC, Enterococcus faecium isolate 16 ([3]; clinical isolate 16, 37 °C, 24 h): 32 µg/mL | MIC, Enterococcus faecium isolate 17 ([3]; clinical isolate 17, 37 °C, 24 h): 64 µg/mL | MIC, Enterococcus faecium isolate 18 ([3]; clinical isolate 18, 37 °C, 24 h): 32 µg/mL | MIC, Enterococcus faecium isolate 19 ([3]; clinical isolate 19, 37 °C, 24 h): 64 µg/mL | MIC, Enterococcus faecium isolate 20 ([3]; clinical isolate 20, 37 °C, 24 h): 64 µg/mL | MIC, Enterococcus faecium isolate 21 ([3]; clinical isolate 21, 37 °C, 24 h): > 64 µg/mL | MIC, Enterococcus faecium isolate 22 ([3]; clinical isolate 22, 37 °C, 24 h): 64 µg/mL | MIC, Enterococcus faecium isolate 23 ([3]; clinical isolate 23, 37 °C, 24 h): > 64 µg/mL | MIC, Enterococcus faecium isolate 24 ([3]; clinical isolate 24, 37 °C, 24 h): > 64 µg/mL | MIC, Enterococcus faecium isolate 25 ([3]; clinical isolate 25, 37 °C, 24 h): > 64 µg/mL | MIC, Enterococcus faecium isolate 26 ([3]; clinical isolate 26, 37 °C, 24 h): > 64 µg/mL
